Read-outs that look alike come from different tables or passages of the source. No end group written: not given here.
Experiments:
Assay in all cases: biochemical
HLA-B*1801 = HLA-B*1801 (Homo sapiens, UniProt P01889, A329T/A93T/A95T/C349S/D201E/D54G/D98Y/E176V/E187T/E204Q/E69T/K202T/Q94N/R155S/R180L/S121R/V306I/Y140S/Y195H/Y33H/Y91S); assay type: binding
HLA-B*4002 = HLA-B*4002 (Homo sapiens, UniProt P01889, A65T/A93T/A95T/D138N/D201E/D98Y/E176V/E204Q/E69K/K202T/N87E/Q56L/Q94N/R180L/S48T/Y33H/Y91S); assay type: binding
HLA-B*4001 = HLA-B*4001 (Homo sapiens, UniProt P01889, A65T/A93T/A95T/D138N/D98Y/E176V/E69K/N87E/Q56L/Q94N/R180L/S121R/S35A/S48T/T167S/V36M/W171L/Y33H/Y91S); assay type: binding
HLA-B*4402 = HLA-B*4402 (Homo sapiens, UniProt P01889, A223V/A65T/A93T/A95T/D201E/D98Y/E176V/E187L/E204Q/E69K/G107R/H137Y/K202T/L105A/L119I/N104T/N87E/Q56L/Q94N/R106L/R155S/R180D/S101N/S121R/S35A/S48T/T118I/V36M/W191S/Y140D/Y91S); assay type: binding
H-2Kk = H-2Kk (Mus musculus, UniProt P04223); assay type: binding, murine
H-2 Db = H-2 Db (Mus musculus, UniProt P01899); assay type: binding, murine; conditions: Db
H-2Ld = H-2Ld (Mus musculus, UniProt P01897); assay type: binding, murine
HLA-B*4501 = HLA-B*4501 (Homo sapiens, UniProt P01889, A329T/A65T/A93T/A95T/C349S/D138N/D201E/D98Y/E176V/E187L/E204Q/E69K/H137Y/K202T/L119W/N87E/Q56L/Q94N/R155S/R180D/S121R/S35A/S48T/V127L/V306I/V36M/W191S/Y140L/Y33H/Y91S); assay type: binding; conditions: B*4501
HLA-B*0702 = HLA-B*0702 (Homo sapiens, UniProt P01889); assay type: binding
HLA-B*5301 = HLA-B*5301 (Homo sapiens, UniProt P01889, A329T/A93T/A95T/C349S/D201E/D98Y/E176V/E187L/E204Q/E69T/G107R/I218V/K202T/L105A/L119I/N104I/Q94N/R106L/R155S/R180L/S101N/S121R/S35A/S48A/T118I/V127L/V306I/V36M/Y140S/Y91F); assay type: binding
HLA-B*3501 = HLA-B*3501 (Homo sapiens, UniProt P01889, A329T/A93T/A95T/C349S/D201E/D98Y/E176V/E187L/E204Q/E69T/I218V/K202T/L119I/Q94N/R155S/R180L/S121R/S35A/S48A/T118I/V127L/V306I/V36M/Y140S/Y91F); conditions: B*3501 binding affinity (IC50)
HLA-B*5101 = HLA-B*5101 (Homo sapiens, UniProt P01889, A329T/A93T/A95T/C349S/D138N/D201E/D98Y/E187L/E204Q/E69T/G107R/I218V/K202T/L105A/L119W/N104I/Q94N/R106L/R155S/R180L/S101N/S121T/S35A/S48A/V306I/V36M/Y195H/Y91F); conditions: B*5101 binding affinity (IC50)
HLA-B*5401 = HLA-B*5401 (Homo sapiens, UniProt P01889, A329T/C349S/D138N/D201E/E176V/E187T/E204Q/E69G/I76V/K202T/L119W/R155S/R180L/S121T/S35A/S48A/V127L/V306I/V36M/Y140L); assay type: binding
HLA-B*4403 = HLA-B*4403 (Homo sapiens, UniProt P01889, A223V/A65T/A93T/A95T/D201E/D98Y/E176V/E187L/E204Q/E69K/G107R/H137Y/K202T/L105A/L119I/N104T/N87E/Q56L/Q94N/R106L/R155S/R180L/S101N/S121R/S35A/S48T/T118I/V36M/W191S/Y140D/Y91S); assay type: binding

Sequence of H-2Ld (P01897 25-362): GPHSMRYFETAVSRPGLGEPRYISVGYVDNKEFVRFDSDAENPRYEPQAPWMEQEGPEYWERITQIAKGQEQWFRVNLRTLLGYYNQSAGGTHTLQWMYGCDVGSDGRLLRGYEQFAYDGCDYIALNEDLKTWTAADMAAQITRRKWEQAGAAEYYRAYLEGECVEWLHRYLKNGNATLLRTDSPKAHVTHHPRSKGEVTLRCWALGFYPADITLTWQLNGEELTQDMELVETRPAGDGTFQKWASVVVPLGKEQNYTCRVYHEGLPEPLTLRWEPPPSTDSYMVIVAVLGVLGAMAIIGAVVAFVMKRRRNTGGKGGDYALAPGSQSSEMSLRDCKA
Sequence of H-2Ld (P61769 21-119, further chain): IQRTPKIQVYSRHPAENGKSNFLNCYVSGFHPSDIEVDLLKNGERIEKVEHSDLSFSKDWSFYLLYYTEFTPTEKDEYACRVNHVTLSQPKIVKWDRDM
Sequence of H-2Kk (P04223 22-369): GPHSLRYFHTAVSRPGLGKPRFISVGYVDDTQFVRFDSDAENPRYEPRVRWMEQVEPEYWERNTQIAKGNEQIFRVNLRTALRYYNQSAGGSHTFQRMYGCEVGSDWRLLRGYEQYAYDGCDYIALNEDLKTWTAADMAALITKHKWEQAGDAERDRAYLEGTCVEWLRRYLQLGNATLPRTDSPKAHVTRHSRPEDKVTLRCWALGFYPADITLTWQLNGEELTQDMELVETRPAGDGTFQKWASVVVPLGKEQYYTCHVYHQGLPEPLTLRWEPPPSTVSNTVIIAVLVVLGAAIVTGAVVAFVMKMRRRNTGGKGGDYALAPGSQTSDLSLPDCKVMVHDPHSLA
Sequence of H-2Kk (P61769 21-119, further chain): as the sequence (P61769 21-119, further chain) above
Sequence of H-2 Db (P61769 21-119): as the sequence (P61769 21-119, further chain) above
Sequence of H-2 Db (P01899 25-362): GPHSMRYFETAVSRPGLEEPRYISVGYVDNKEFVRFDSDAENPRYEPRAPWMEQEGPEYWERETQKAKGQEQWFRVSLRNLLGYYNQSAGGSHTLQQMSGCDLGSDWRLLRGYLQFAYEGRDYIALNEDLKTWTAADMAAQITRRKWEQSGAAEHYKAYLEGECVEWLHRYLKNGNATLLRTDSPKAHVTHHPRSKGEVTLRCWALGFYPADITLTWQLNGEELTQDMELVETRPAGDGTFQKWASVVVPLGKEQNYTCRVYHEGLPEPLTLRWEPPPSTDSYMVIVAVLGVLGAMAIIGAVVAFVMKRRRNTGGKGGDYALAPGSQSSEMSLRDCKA

Compound YEANGNLI has an IC50 (HLA-B*1801) of 191 nM, an IC50 (HLA-B*4002) of 7 nM and an IC50 (HLA-B*4001) of 7.9 nM. It also gave an IC50 (HLA-B*4402) of 516 nM and an IC50 (H-2Kk) of 0.65 nM.

KAVYNYATM gave an IC50 (H-2 Db) of 2.1 nM and an IC50 (H-2Ld; Ld) of over 27000 nM.

In the case of IPQSLDSWTSL, the IC50 (H-2Ld; Ld) is reported as 0.22 nM.

For QEKKRHVDL, the IC50 (HLA-B*1801; B*1801) was 7.3 nM, the IC50 (HLA-B*4002; B*4002) was 63100 nM and the IC50 (HLA-B*4001; B*4001) was 16000 nM. The IC50 (HLA-B*4402; B*4402) was 443 nM, the IC50 (HLA-B*4501) was 12600 nM and the IC50 (H-2Kk) was 256 nM.

TPTGWGLAI showed an IC50 (HLA-B*0702; B*0702 binding affinity (IC50)) of 76 nM, an IC50 (HLA-B*5301; B*5301 binding affinity (IC50)) of 1340 nM and an IC50 (HLA-B*3501) of 5140 nM.

CC(C)C[C@H](NC(=O)[C@H](C)NC(=O)[C@@H](NC(=O)[C@H](CC(C)C)NC(=O)[C@H](C)NC(=O)[C@@H](NC(=O)[C@@H](NC(=O)[C@H](CCCNC(=N)N)NC(=O)[C@@H]1CCCN1C(=O)[C@H](C)N)[C@@H](C)O)C(C)C)[C@@H](C)O)C(=O)O [APRTVALTAL] gave an IC50 (HLA-B*5101) of 14600 nM, an IC50 (HLA-B*0702; B*0702 binding affinity (IC50)) of 12 nM and an IC50 (HLA-B*5301; B*5301 binding affinity (IC50)) of 61600 nM. It also gave an IC50 (HLA-B*5401; B*5401 binding affinity (IC50)) of 16800 nM and an IC50 (HLA-B*3501) of 4350 nM.

With SDYEGRLI the IC50 (HLA-B*1801) was over 24800 nM, the IC50 (HLA-B*4002) was 86 nM and the IC50 (HLA-B*4403) was 228 nM. The IC50 (H-2Kk) was 0.6 nM.

Compound LGFVFTLTV has an IC50 (HLA-B*0702; B*0702 binding affinity (IC50)) of 849 nM, an IC50 (HLA-B*5301; B*5301 binding affinity (IC50)) of over 93000 nM and an IC50 (HLA-B*3501) of over 72000 nM.

Work on CC(C)C[C@H](NC(=O)[C@H](Cc1c[nH]cn1)NC(=O)[C@H](CCCNC(=N)N)NC(=O)[C@H](CCC(N)=O)NC(=O)[C@H](CCCCN)NC(=O)[C@H](CCC(=O)O)NC(=O)[C@H](CCC(=O)O)NC(=O)[C@@H]1CCCN1C(=O)[C@@H](N)CS)C(=O)O yielded an IC50 (HLA-B*5101) of over 35500 nM, an IC50 (HLA-B*0702; B*0702 binding affinity (IC50)) of 10 nM and an IC50 (HLA-B*5301; B*5301 binding affinity (IC50)) of over 109000 nM. For the same compound, the IC50 (HLA-B*5401; B*5401 binding affinity (IC50)) was over 76900 nM and the IC50 (HLA-B*3501) was over 52600 nM.

SEAAYAKKI was tested, and the IC50 (HLA-B*1801; B*1801) was 8610 nM, the IC50 (HLA-B*4001; B*4001) was 308 nM and the IC50 (HLA-B*4402; B*4402) was 1680 nM. For the same compound, the IC50 (HLA-B*4403; B*4403) was 61 nM and the IC50 (H-2Kk) was 3.9 nM.

Compound KAVYNAATM has an IC50 (H-2 Db) of 2 nM and an IC50 (H-2Ld; Ld) of over 27000 nM.

Work on GPGHKARVI yielded an IC50 (HLA-B*5101) of over 55000 nM, an IC50 (HLA-B*0702; B*0702 binding affinity (IC50)) of 1690 nM and an IC50 (HLA-B*5401; B*5401 binding affinity (IC50)) of over 50000 nM. For the same compound, the IC50 (HLA-B*3501) was over 72000 nM.

In the case of RPQASGVAM, the IC50 (H-2Ld; Ld) is reported as 12 nM.

Work on TPAIRGPGPGF yielded an IC50 (HLA-B*0702; read-out: B*0702 binding affinity (IC50)) of 144 nM, an IC50 (HLA-B*5301; read-out: B*5301 binding affinity (IC50)) of 2740 nM and an IC50 (HLA-B*5401; read-out: B*5401 binding affinity (IC50)) of 31800 nM.

SENDRYRLL was tested, and the IC50 (H-2Kk; read-out: Kk) was 13 nM.

In the case of EEKHEKKHV, the IC50 (H-2Kk) is reported as 284 nM.

With RIPNASGVYM the IC50 (H-2Ld; read-out: Ld) was 19 nM.

YENDIEKKI was tested, and the IC50 (HLA-B*1801; B*1801) was 31000 nM, the IC50 (HLA-B*4402; B*4402) was 1730 nM and the IC50 (HLA-B*4403; B*4403) was 371 nM. The IC50 (H-2Kk) was 3.8 nM.

HETTYNSI was tested, and the IC50 (HLA-B*1801; B*1801) was 1640 nM, the IC50 (HLA-B*4002; B*4002) was 336 nM and the IC50 (HLA-B*4402; B*4402) was 616 nM. It also gave an IC50 (HLA-B*4501) of 6610 nM and an IC50 (H-2Kk) of 1.8 nM.

For YPHFMLPTNL, the IC50 (H-2Ld; read-out: Ld) was 7.5 nM.

In the case of NEEPSDKHI, the IC50 (H-2Kk) is reported as 40 nM.

FPGPGPGPL gave an IC50 (HLA-B*5101) of 2330 nM, an IC50 (HLA-B*0702; B*0702 binding affinity (IC50)) of 1580 nM and an IC50 (HLA-B*5301; B*5301 binding affinity (IC50)) of 21000 nM. The IC50 (HLA-B*5401; B*5401 binding affinity (IC50)) was 29900 nM and the IC50 (HLA-B*3501) was 426 nM.

NEILIRCII gave an IC50 (HLA-B*1801; B*1801) of 5670 nM, an IC50 (HLA-B*4002; B*4002) of 59 nM and an IC50 (HLA-B*4501) of 3250 nM. For the same compound, the IC50 (HLA-B*4403; B*4403) was 258 nM and the IC50 (H-2Kk) was 12 nM.

— patent US20060079453A1, “Hla binding peptides and their uses” (priority 2002, published 2006)
